Laboratory results published in patent US20170304336A1, “COMBINATION” (priority 2014, published 2017).
Blank lines part the entries; values can stand above or below the compound they belong to.

Legend:
[1] = Dynamics of body weight of rabbits (Schemes A and B); assay type: in vivo, male rabbits of Californian breed; details: for Body weight: Scheme A, M ± SEM
[2] = Mass coefficients of organs (pancreas, liver, kidneys) of rats; assay type: in vivo, male rats of Wistar line; details: M ± m; for weight coefficient, Kidneys / weight coefficient, Liver: in %
Method: To calculate mass coefficients the pancreas, liver and kidneys of the animals were extracted. The organs were weighed and the mass coefficients were calculated by the following formula:
Mass coefficient=(organ weight/animal body weight)×100%

[3] = tested on: experimental rat hypercholesterolemia model; assay: Biochemical blood analysis (drug toxicity parameters) in rat hypercholesterolemia model; assay type: in vivo, male rats of Wistar line
Method: (§1) Evaluation of hypocholesterolemic efficacy and safety of pharmaceutical combination was performed in vivo in experimental rat hypercholesterolemia model.
(§2) For 90 days the studied animals received hypercholesterol diet for pathology induction. The diet included Cholesterol+Cholic acid+Overheated fats (deep fat).
(§3) Drugs were introduced intragastrically with an esophageal bougie daily on Day 31-90 of the study at the same time of day.
Biochemical parameters and activity of serum enzymes (aspartate- and alanine aminotransferase, creatine phosphokinase, urea, serum amylase, total bilirubin, direct bilirubin, indirect bilirubin, serum glucose, cations K^+, Na^+).
1.0-1.84 ml blood samples for the study of biochemical parameters were taken from tail vein of rats. Blood samples were taken from the animals after 14-15-hour's fasting at same time of day (9.00-11.00). For biochemical parameters tests a Biochemical Analyzer A-25 (Biosystems, Spain) was used.
Vol. 4. pp. 1794-1798; Pearlman F C and Lee R T Y. Clin Chem 1974, 20, 447-453; Zoppi F et al, Peracino A., Fenili D., Marcovina S. and Ramella C. Giorn It Chim Cl. […] C. et al Clin Chem. 1974. Vol. 20. pp. 470-475; and in Meiattini F., et al, Clin Chem. 1978. Vol. 24. pp. 2161-2165 (total cholesterol); Warnick G R et al. Clin Chem 2001, 47, 1579-96 (HDL/LDL); Bucolo G and David H. Clin Chem. 1973.-Vol. 19. pp. 476-482; and in Fossati P. and, Prencipe L., Clin Chem. 1982. Vol. 28. pp. 2077-2080 (triglycerides); Trinder P. Ann Clin Biochem. 1969. Vol. 6. pp. 24-27).

[4] = tested on: experimental rat hypercholesterolemia model; assay: Lipid spectrum of blood in experimental rat hypercholesterolemia model; assay type: in vivo, male rats of Wistar line
Method: The animals used were male rats of Wistar line. […] The proposed model using rats as the experimental animals is a reproducible standard model for evaluation of hypocholesterolemic effect.
as §1, §2
For 90 days the animals received the said ration ad libitum (30 g feed per animal). Development of hypercholesterolemia in animals was evaluated based on changes in lipid spectrum parameters on Day 30 of the study.
as §3
Biochemical parameters and activity of blood serum enzymes (total cholesterol (CHS), LDL-CHS, HDL-CHS, triglycerides.
1.0-1.84 ml blood samples for the study of biochemical parameters were taken from tail vein of rats. Blood samples were taken from the animals after 14-15-hour's fasting at same time of day (9.00-11.00). For biochemical parameters tests a Biochemical Analyzer A-25 (Biosystems, Spain) was used. […]

[5] = Mass coefficients of liver and pancreas of rabbits; assay type: in vivo, male rabbits of Californian breed; details: for pancreatic mass coefficients relative to the control group: rosuvastatin 40 mg, AGA 100 mg
[6] = RV + AGA 10 + 108 mg, RV 10 mg, AGA 108 mg
[7] = Day 30 of treatment (Day 60 of study), dose 10 mg
[8] = blood, Day 60 of the treatment (Day 90 of the study), RV + AGA 10 + 108 mg, RV 10 mg, AGA 108 mg
[9] = Day 30 of treatment (Day 60 of study), dose 20 mg
[10] = Day 60 of treatment (Day 90 of study), dose 10 mg
[11] = Day 60 of treatment (Day 90 of study), dose 20 mg
[12] = PV + GtA 40 + 108 mg, PV 40 mg, GtA 108 mg
[13] = group 3 of the rosuvastatin table, 20 mg
[14] = Day 30 of treatment (Day 60 of study), dose 40 mg
[15] = blood, Day 60 of the treatment (Day 90 of the study), PV + GtA 40 + 108 mg, PV 20 mg, GtA 108 mg
[16] = Day 60 of treatment (Day 90 of study), dose 40 mg
[17] = FV + GA 80 + 90 mg, FV 80 mg, GA 90 mg
[18] = Day 30 of treatment (Day 60 of study), dose 80 mg
[19] = blood, Day 60 of the treatment (Day 90 of the study), FV + GA 80 + 90 mg, FV 80 mg, GA 90 mg
[20] = Day 60 of treatment (Day 90 of study), dose 80 mg

- weight coefficient, Pancreas [2, 6]: 0.35 ± 0.04
- weight coefficient, Kidneys [2, 6]: 0.75 ± 0.03
- weight coefficient, Liver [2, 6]: 4.42 ± 0.11
- Mass ratios, M ± SEM, Liver ([5]; Scheme A, dose 20 mg): 3.8 ± 0.2
- Mass ratios, M ± SEM, Pancreas ([5]; Scheme A, dose 20 mg): 0.07 ± 0.006
- Mass ratios, M ± SEM, Liver ([5]; Scheme A, dose 40 mg): 4.0 ± 0.1
- Mass ratios, M ± SEM, Pancreas ([5]; Scheme A, dose 40 mg): 0.09 ± 0.004
- pancreatic mass coefficients relative to the control group ([5]; Scheme A): significant increase
- Mass ratios, M ± SEM, Liver ([5]; Scheme B, dose 20 mg): 3.8 ± 0.2
- Mass ratios, M ± SEM, Pancreas ([5]; Scheme B, dose 20 mg): 0.09 ± 0.004^12
- pancreatic mass coefficients relative to the control group ([5]; Scheme B): statistically significant increase
SMILES: CC(C)c1nc(N(C)S(C)(=O)=O)nc(-c2ccc(F)cc2)c1/C=C/[C@@H](O)C[C@@H](O)CC(=O)O [RV, (3R,5S,6E)-7-[4-(4-fluorophenyl)-2-(N-methylmethanesulfonamido)-6-(propan-2-yl)pyrimidin-5-yl]-3,5-dihydroxyhept-6-enoic acid]
- Body weight ([1]; Day 0 (Before the study), dose group 20 mg): 2874 ± 165 g
- Body weight ([1]; Day 0 (Before the study), dose group 40 mg): 2787 ± 141 g
- Body weight ([1]; Day 28 (in the setting of pathology without treatment), dose group 20 mg): 3350 ± 157 g
- Body weight ([1]; Day 28 (in the setting of pathology without treatment), dose group 40 mg): 3428 ± 146 g
- Body weight ([1]; Day 90 (in the setting of pathology with treatment), dose 20 mg): 4340 ± 53 g
- Body weight ([1]; Day 90 (in the setting of pathology with treatment), dose 40 mg): 4348 ± 66 g
- Body weight, M ± SEM, Day 120 (in the setting of pathology with treatment) ([1]; Scheme B, dose 20 mg): 4699 ± 131^1 g
- Body weight, M ± SEM, Day 0 (Before the study) ([1]; Scheme B, dose 20 mg, baseline): 2665 ± 85 g
- Body weight, M ± SEM, Day 56 (in the setting of pathology without treatment) ([1]; Scheme B, dose 20 mg, before treatment): 3479 ± 106 g
- ALT [3, 7]: 179 U/l
- AST [3, 7]: 182 U/l
- Amylase [3, 7]: 641 U/l
- Bilirubin direct [3, 7]: 2.7 mg/dL
- Bilirubin indirect [3, 7]: 2.1 mg/dL
- Bilirubin total [3, 7]: 4.6 mg/dL
- CPK [3, 7]: 702 U/l
- Glucose [3, 7]: 158 mg/dL
- Potassium [3, 7]: 4.3 mM
- Sodium [3, 7]: 128 mmol
- Urea [3, 7]: 7.2 mmol/L
- ALT [3, 8]: 139 U/l
- AST [3, 8]: 190 U/l
- Amylase [3, 8]: 584 U/l
- Bilirubin direct [3, 8]: 2.9 mg/dL
- Bilirubin indirect [3, 8]: 1.7 mg/dL
- Bilirubin total [3, 8]: 4.8 mg/dL
- CPK [3, 8]: 597 U/l
- Glucose [3, 8]: 130 mg/dL
- Potassium [3, 8]: 2.2 mM
- Sodium [3, 8]: 130 mmol
- Urea [3, 8]: 6.4 mmol/L
- HDL CHS [4, 7]: 0.81 ± 0.05 mmol/L
- LDL CHS [4, 7]: 3.23 ± 0.21 mmol/L
- TG [4, 7]: 1.21 ± 0.10 mmol/L
- Total CHS [4, 7]: 4.0 ± 0.2 mmol/L
- HDL CHS [4, 9]: 0.9 ± 0.03 mmol/L
- LDL CHS [4, 9]: 3.00 ± 0.10 mmol/L
- TG [4, 9]: 1.27 ± 0.03 mmol/L
- Total CHS [4, 9]: 3.6 ± 0.1 mmol/L
- HDL CHS [4, 10]: 0.81 ± 0.05 mmol/L
- LDL CHS [4, 10]: 2.90 ± 0.21 mmol/L
- TG [4, 10]: 1.21 ± 0.10 mmol/L
- Total CHS [4, 10]: 3.7 ± 0.2 mmol/L
- HDL CHS [4, 11]: 0.91 ± 0.03 mmol/L
- LDL CHS [4, 11]: 2.72 ± 0.20 mmol/L
- TG [4, 11]: 1.29 ± 0.03 mmol/L
- Total CHS [4, 11]: 3.3 ± 0.1 mmol/L

- weight coefficient, Pancreas [2, 12]: 0.47 ± 0.03^1
- weight coefficient, Kidneys [2, 12]: 0.76 ± 0.01
- weight coefficient, Liver [2, 12]: 4.47 ± 0.17
- weight coefficient, Pancreas [2, 13]: 0.49 ± 0.03^1
- weight coefficient, Kidneys [2, 13]: 0.78 ± 0.02
- weight coefficient, Liver [2, 13]: 4.49 ± 0.15
SMILES: CC[C@H](C)C(=O)OC1C[C@H](O)C=C2C=C[C@H](C)C(CC[C@@H](O)C[C@@H](O)CC(=O)O)[C@H]21 (stereo in doubt) [PV, (3R,5R)-3,5-dihydroxy-7-((1R,2S,6S,8R,8aR)-6-hydroxy-2-methyl-8-{[(2S)-2-methylbutanoyl]oxy}-1,2,6,7,8,8a-hexahydronaphthalen-1-yl)-heptanoic acid]
- ALT [3, 14]: 177 U/l
- AST [3, 14]: 173 U/l
- Amylase [3, 14]: 641 U/l
- Bilirubin direct [3, 14]: 2.8 mg/dL
- Bilirubin indirect [3, 14]: 2.2 mg/dL
- Bilirubin total [3, 14]: 4.7 mg/dL
- CPK [3, 14]: 604 U/l
- Glucose [3, 14]: 150 mg/dL
- Potassium [3, 14]: 3.4 mM
- Sodium [3, 14]: 127 mmol
- Urea [3, 14]: 7.0 mmol/L
- ALT [3, 15]: 135 U/l
- AST [3, 15]: 188 U/l
- Amylase [3, 15]: 586 U/l
- Bilirubin direct [3, 15]: 2.7 mg/dL
- Bilirubin indirect [3, 15]: 1.9 mg/dL
- Bilirubin total [3, 15]: 4.9 mg/dL
- CPK [3, 15]: 598 U/l
- Glucose [3, 15]: 160 mg/dL
- Potassium [3, 15]: 4.3 mM
- Sodium [3, 15]: 129 mmol
- Urea [3, 15]: 6.0 mmol/L
- HDL CHS [4, 14]: 0.65 ± 0.04 mmol/L
- LDL CHS [4, 14]: 4.12 ± 0.35 mmol/L
- TG [4, 14]: 1.33 ± 0.12 mmol/L
- Total CHS [4, 14]: 4.4 ± 0.3 mmol/L
- HDL CHS [4, 16]: 0.75 ± 0.04 mmol/L
- LDL CHS [4, 16]: 3.70 ± 0.35 mmol/L
- TG [4, 16]: 1.33 ± 0.11 mmol/L
- Total CHS [4, 16]: 4.0 ± 0.3 mmol/L

- weight coefficient, Pancreas [2, 17]: 0.37 ± 0.03^1
- weight coefficient, Kidneys [2, 17]: 0.75 ± 0.03
- weight coefficient, Liver [2, 17]: 4.41 ± 0.12
SMILES: CC(C)n1c(/C=C/[C@@H](O)C[C@@H](O)CC(=O)O)c(-c2ccc(F)cc2)c2ccccc21 (stereo in doubt) [FV, (3R,5S,6E)-7-[3-(4-fluorophenyl)-1-(propan-2-yl)-1H-indol-2-yl]-3,5-dihydroxyhept-6-enoic acid]
- ALT [3, 18]: 170 U/l
- AST [3, 18]: 191 U/l
- Amylase [3, 18]: 637 U/l
- Bilirubin direct [3, 18]: 2.6 mg/dL
- Bilirubin indirect [3, 18]: 2.2 mg/dL
- Bilirubin total [3, 18]: 4.0 mg/dL
- CPK [3, 18]: 690 U/l
- Glucose [3, 18]: 150 mg/dL
- Potassium [3, 18]: 3 mM
- Sodium [3, 18]: 125 mmol
- Urea [3, 18]: 7.3 mmol/L
- ALT [3, 19]: 148 U/l
- AST [3, 19]: 200 U/l
- Amylase [3, 19]: 590 U/l
- Bilirubin direct [3, 19]: 1.4 mg/dL
- Bilirubin indirect [3, 19]: 1.6 mg/dL
- Bilirubin total [3, 19]: 4.2 mg/dL
- CPK [3, 19]: 680 U/l
- Glucose [3, 19]: 127 mg/dL
- Potassium [3, 19]: 2.3 mM
- Sodium [3, 19]: 124 mmol
- Urea [3, 19]: 6.3 mmol/L
- HDL CHS [4, 18]: 0.61 ± 0.04 mmol/L
- LDL CHS [4, 18]: 3.31 ± 0.44 mmol/L
- TG [4, 18]: 1.39 ± 0.14 mmol/L
- Total CHS [4, 18]: 5.0 ± 0.3 mmol/L
- HDL CHS [4, 20]: 0.72 ± 0.03 mmol/L
- LDL CHS [4, 20]: 3.52 ± 0.44 mmol/L
- TG [4, 20]: 1.45 ± 0.14 mmol/L
- Total CHS [4, 20]: 4.9 ± 0.4 mmol/L
